Test results reported in patent publication US8735622B2, “Histone demethylase inhibitors and methods for using the same” (The Regents of the University of Colorado, a body corporate, priority 2011, dated 2014).
Several values for one entry are separate records, joined by “and”; a condition that tells them apart may be missing. Identical values can stand only once.

Key:
[1] = molecular target: T1, human GASC1 (GST-GASC1(1-420)) (Homo sapiens, UniProt Q9H3R0); test: GASC1 enzyme activity assay (DELFIA); assay type: biochemical; conditions: DELFIA, H3K9me3 peptide substrate
T1 construct: corresponding to amino acid 1-420 was cloned and purified; made in house; host or cells: Escherichia coli BL-21
T1 sequence (Q9H3R0 1-420): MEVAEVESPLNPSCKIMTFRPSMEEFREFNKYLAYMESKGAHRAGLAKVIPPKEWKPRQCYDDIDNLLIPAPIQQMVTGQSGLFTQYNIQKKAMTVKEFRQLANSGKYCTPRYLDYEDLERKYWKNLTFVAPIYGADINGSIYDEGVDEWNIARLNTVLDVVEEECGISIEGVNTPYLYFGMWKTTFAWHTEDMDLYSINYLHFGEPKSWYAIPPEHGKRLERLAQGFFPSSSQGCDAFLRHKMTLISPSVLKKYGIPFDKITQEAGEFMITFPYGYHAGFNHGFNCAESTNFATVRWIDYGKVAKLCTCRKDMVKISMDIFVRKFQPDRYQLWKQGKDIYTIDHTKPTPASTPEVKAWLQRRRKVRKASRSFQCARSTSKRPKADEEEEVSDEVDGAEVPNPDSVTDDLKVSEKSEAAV
Description: (§1) In order to evaluate the inhibitory activity of 1 in vitro, a GST-fusion protein of the catalytic N-terminus of human GASC1 (gene amplified in squamous cell carcinoma 1) corresponding to amino acid 1-420 was cloned and purified. […] To evaluate the enzyme specificity of 1, the activity of 1 was examined against several other related enzymes in vitro.
(§2) The enzyme activity assays for GASC1 and JMJD2A were established on the DELFIA platform. DELFIA assays were performed in white, opaque 384-well plates coated with Streptavidin (Perkin Elmer). GST-GASC1(1-420) was diluted to 200 ng/well in 20 mM Tris HCl pH 8.5/2 mM glutathione and added in a volume of 20 μL. Blank wells received Tris/glutathione buffer only. Test compounds were diluted in DMSO and […] was pinned into the wells. Blank and control wells received only compound buffer. The reactions were initiated by the addition of 500 nM biotin-H3(1-20)K9me3 substrate, 10 μM FeSO4, 100 μM alpha-ketoglutarate in a volume of 20 μL, and incubated at room temperature for 60 minutes. The plates were washed 3 times with 100 μL of Wash Buffer (50 mM Tris pH 7.4, 150 mM NaCl, 0.05% Tween 20, 0.2% BSA). […] Time resolved fluorescence was measured after 45 minutes on an Envision Microplate Imager (Perkin Elmer Life Sciences) with 400 μs delay, excitation at 360 nm, and emission at 620 nm.

JMJD2A = molecular target: T2, JMJD2A (Homo sapiens, UniProt O75164); test: JMJD2A enzyme activity assay (DELFIA); assay type: biochemical; conditions: DELFIA
T2 construct: Recombinant protein preparation of GASC1(1-420), JMJD2A (1-420) and LSD1 (full-length); made in house; host or cells: Escherichia coli BL-21
T2 sequence (O75164 1-420): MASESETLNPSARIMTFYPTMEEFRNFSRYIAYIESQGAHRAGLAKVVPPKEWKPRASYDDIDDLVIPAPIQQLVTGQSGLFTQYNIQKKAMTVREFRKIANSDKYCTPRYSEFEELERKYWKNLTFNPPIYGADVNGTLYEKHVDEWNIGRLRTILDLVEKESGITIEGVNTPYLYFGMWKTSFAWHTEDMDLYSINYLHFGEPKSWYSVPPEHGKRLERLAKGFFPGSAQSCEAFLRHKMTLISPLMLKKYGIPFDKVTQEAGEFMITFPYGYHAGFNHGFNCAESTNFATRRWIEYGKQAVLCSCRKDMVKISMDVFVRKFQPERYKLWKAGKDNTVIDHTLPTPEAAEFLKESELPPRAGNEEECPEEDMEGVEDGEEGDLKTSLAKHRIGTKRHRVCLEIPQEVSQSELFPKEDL
Description: as §1, §2

LSD1 = molecular target: T3, LSD1 (Homo sapiens, UniProt O60341); test: LSD1 formaldehyde dehydrogenase coupled assay; assay type: biochemical; conditions: in vitro
T3 construct: LSD1 (full-length) was expressed as glutathione S-transferase (GST) fusions; made in house; host or cells: Escherichia coli BL-21
Description: LSD1 activity was measured in a formaldehyde dehydrogenase coupled assay. 15 μL enzyme mix containing 2.4 μg GST-LSD1 in 20 mM TRIS pH 8.5, 1 mM NAD, 1.5 mU formaldehyde dehydrogenase, 0.5 mM glutathione was added, followed by pin transfer of 100 nL compound. Then reactions were started by addition of 15 μL 75 μM H3(1-20)K4me2 peptide, and NADH fluorescence was measured on a Envision Microplate Imager (Perkin Elmer Life Sciences) with excitation at 345 nm and emission at 460 nm, integration for 400 ms at 10 min and 80 min after peptide addition.

HDACs = test: Histone deacetylases (HDACs) enzyme inhibition assay (Fluor de Lys); assay type: biochemical; conditions: in vitro
Description: The enzyme activity assay for HDAC was carried out using Fluor de Lys Fluorescent Assay System (BML-AK500, Enzo Life Sciences Inc, NY USA). The assay was performed as the manufactory guide in white 384-well plates. Time resolved fluorescence was measured on a Beckman Coulter DTX 880 plate reader with 250 ms delay, excitation at 360 nm, and emission at 530 nm.

KYSE150 cells = test: Cell viability / growth inhibition assay (CellTiter-Glo); assay type: cell-based, human; conditions: 48 hours; compound 1 at up to 100 μM
Excerpt: To examine the cellular activity of the compounds of the invention, oesophageal carcinoma cell line KYSE150 was used in a growth inhibition assay because KYSE150 cells have been reported to contain several copies of the GASC1 gene, and it has been reported that inhibition of GASC1 expression using short hairpin RNA causes a significant reduction of proliferation in KYSE150 cells. […] Without being bound by any theory, it is believed that this low activity in cells was possibly due to the poor cellular uptake of the zwitterion form in which it typically exists under physiological conditions. Therefore, its methyl ester prodrug 2 (FIG. 1a), called methylstat was tested.
To screen and validate the cellular toxicity of compounds, a cell viability assay was carried out using CellTiter-Glo luminescent cell viability assay kit (Promega, Madison USA). KYSE150 cells were seeded on blank-walled 384-well plates with KYSE medium at densities of 1,000 cells/well. The medium volume for each well was 40 μL. Cells were incubated at 37° C. in 5% CO2/95% air for 24 hours. The medium was removed from each well and replaced with 38 μL, of warmed fresh medium and 2 μL, compound solution in 2% DMSO/98% H2O. The compounds were added into medium at different concentrations with the final concentration of DMSO as 0.1%. After incubation at 37° C. with 5% CO2/95% air for another 48 hours, the plates were equilibrated to room temperature for 30 minutes. 40 μL, of CellTiter-Glo reagent (Promega, Madison USA) was added to each well and mixed for 2 minutes on an orbital shaker. The plate was incubated at room temperature for another 10 minutes to stabilize luminescent signal. The luminescence of each sample was measured in a plate-reading illuminometer (Beckman Coulter DTX 880) with parameters of 1-minute lag time and 0.1 second/well read time. The experiments were performed in triplicate and repeated on two separately initiated cultures.

GST-fused GASC1(1-420) = molecular target: T4, GST-fused GASC1(1-420) (Homo sapiens, UniProt Q9H3R0); test: GASC1 enzyme inhibition assay with MS detection; assay type: biochemical; conditions: 1 μM and 5 μM, 2 hours
T4 construct: corresponding to amino acid 1-420 was cloned and purified; made in house; host or cells: Escherichia coli BL-21
T4 sequence (Q9H3R0 1-420): T1 sequence (Q9H3R0 1-420)
Description: Synthetic histone peptides H3K9me3 were incubated with purified GST-tagged GASC1(1-420) in demethylation buffer (50 mM Tris pH 8.0, 2 mM ZnCl2, 1 mM alpha-ketoglutarate, 50 μM FeSO4, 1 mM ascorbic acid) at 37° C. In a typical reaction, 2 μg of modified histone peptides were incubated with 20 μg GST-GASC1(1-420) in a total volume of 40 μL, for 2 hours. Reaction mixtures were concentrated and re-dissolved in 50% methanol in water with 0.1% formic acid followed by ESI-TOF analysis using ABI Q-Star Pulsar.

Structure (SMILES): O=C(O)/C=C/C(=O)N(O)CCCCNCc1ccc(COC(=O)Nc2cccc3ccccc23)cc1 [Compound 1]
- IC50 [1]: ~4.3 µM and 4.3 µM
- IC50 (JMJD2A): ~3.4 µM and 3.4 µM
- inhibition of FAD-dependent HDM LSD1 (LSD1): did not significantly inhibit
- inhibition of histone deacetylases (HDACs) (HDACs): did not significantly inhibit
- KYSE150 cell growth inhibition (KYSE150 cells): did not show significant growth inhibition
- inhibition of GASC1-mediated demethylation of H3K9me3 peptide (mass spectrum) (GST-fused GASC1(1-420)): inhibited GASC1-mediated demethylation of H3K9me3 peptides
